Measurements from patent EP4699605A1, “USE OF NOVEL COMPOUND FOR TREATING INTRACTABLE DISEASES” (YJ Cerapeutics Inc., priority 2023, dated 2024).

What was measured:
[1] = system: astrocytes; experiment: Astrocyte activation in spinal cord of SNI model (GFAP immunohistochemistry and Western blot); type: in vivo, Sprague-Dawley rats; conditions: L4-5 spinal cord
Experimental: To be used as a peripheral nerve injury animal model, a sciatic nerve injury (SNI) model was prepared (FIG. 1C). Specifically, 200 to 220 g of male adult Sprague-Dawley rats were anesthetized by intraperitoneal injection of chloral hydrate (500 mg/kg), and then three terminal branches (tibial, common peroneal, and sural nerves) of the right sciatic nerve were approached, and the tibia nerve and the peroneal nerve were tightly ligated with 4-0 silk, and neurectomy was performed at a distal 3 mm position of the ligation site. At this time, a Sham group was a group that exposed only the sciatic nerve without damage.
The activation of astrocytes in the spinal cord, known to play an important role in the process of inducing/persisting neuropathic pain, was confirmed by immunohistochemical staining and Western blot analysis using an anti-GFAP antibody against an intermediate filament protein, Glial fibrillary acidic protein (GFAP) of astrocytes, a marker of astrocyte activation, as in Example 3-1.

[2] = system: IMQ psoriasis animal model; experiment: Epidermal layer thickness (H&E) in IMQ psoriasis animal model; type: in vivo, C57BL/6 mouse
Experimental: (§1) Psoriasis caused by excessive production of skin cells was a chronic skin disease associated with various factors, including autoimmune diseases, and its symptoms included red and thickened skin and abnormally occurring scaling. […] Specifically, the back region of a C57BL/6 mouse (male, 18 to 20 g, 8 weeks) (Daehan Biolink, Eumseong, Korea) was shaved to remove hair, and then applied with IMQ cream (83 mg/day) (5%) for consecutive 5 days from Day 0 to Day 4 to induce psoriasis-like skin inflammation, and a normal control mouse (Sham) was applied with Vaseline cream (FIG. 16A).
On day 6, the skin tissue of the psoriasis mouse model was stained with Hematoxyline & Eosin, and the epidermal layer thickness was measured. Specifically, on Day 6, the skin of the mouse back was extracted, immersed in 4% paraformaldehyde for 24 hours to fix the tissue, and then paraffin blocks were made to prepare paraffin tissue sections with a thickness of 5 µm. In order to measure the thickness of the epidermal layer, paraffin tissue was stained with Hematoxylene & Eosin (Abcam) according to the manufacturer's protocol, and five sections of the epidermal layer from each mouse were photographed at 200x magnification using an optical microscope. The epidermal layer thickness was measured in tissues from a total of five mice (a total of 25 sections) and the average value was calculated.

[3] = system: p75 neurotrophin receptor; experiment: p75 expression in urothelium after SCI (RT-PCR, Western blot); type: in vivo, Sprague-Dawley rats; conditions: urothelium after spinal cord injury (days 1 and 7)
From the text: The effect of YJ102 on urothelial cell apoptosis in bladder tissue after spinal cord injury was confirmed by TUNEL staining, and the protein levels of cleaved caspase-3 indicating caspase-3 activation, and UPIII as a urothelial marker were confirmed by Western blot analysis using p75 (Promega), cleaved caspase-3 (Cell signaling technology), and UPIII (Abcam) as primary antibodies. In addition, in order to confirm whether the mechanism of apoptosis was caused by a p75 neurotrophin receptor, which was involved in urothelial apoptosis, the expression level of p75 was confirmed by RT-PCR, Western blot analysis, and immunofluorescence staining. For RT-PCR analysis, the obtained bladder tissue sections were frozen in liquid nitrogen, and ground in a mortar and pestle to be completely lysed, and then RNA was isolated using a TRIZOL Reagent (Invitrogen) according to a manual, and 20 µl of the total mixture was prepared by using 1 µg of total RNA, and cDNA was synthesized using MMLV reverse transcriptase (Invitrogen).

[4] = system: Raw 264.7; experiment: proNGF production in LPS-stimulated macrophage cell line; type: cell-based; conditions: Raw 264.7 stimulated with 1 µg/ml of LPS; YJ102 treated 30 minutes before LPS
Experimental: (§2) In order to determine whether YJ102 affected the production of proNGF as a ligand of p75, the expression of proNGF in the bladder was confirmed by RT-PCR, Western blot analysis, and immunofluorescence staining. In addition, for further verification, a macrophage cell line Raw 264.7 (Korea Cell Line Bank, Seoul, Korea) was stimulated with 1 µg/ml of LPS, and the effect of YJ102 on the production of proNGF was investigated. At this time, YJ102 was dissolved in DMSO and treated 30 minutes before LPS treatment.

[5] = system: Raw 264.7 cell line; experiment: Inflammatory factor mRNA in LPS-treated macrophage cell line (RT-PCR); type: cell-based; conditions: LPS treatment
Experimental: as §2
To confirm the effect of YJ102 on the expression of inflammatory factors in the bladder after spinal cord injury, the expression of inflammatory cytokines and chemokines, COX-2, iNOS, IL-6, IL-1β, MIP-1α, MIP-1β, MIP-2α, and Gro-α in bladder tissue was confirmed by RT-PCR analysis and Western blot analysis using the primers in Table 2 above. In addition, even in the Raw 264.7 cell line, the expression was verified by RT-PCR analysis.

[6] = system: IMQ psoriasis animal model; experiment: PASI scores (erythema, scaling) in IMQ psoriasis animal model; type: in vivo, C57BL/6 mouse; conditions: 5 mg/kg intraperitoneally on Day 2, Day 3, Day 4, vs Vehicle group
Experimental: as §1
In order to confirm the effect of YJ102 (Chemical Formula 1), a compound of the present disclosure, on psoriasis, YJ102 dissolved in DMSO, methyl pyrrolidinone, and water (1 : 1.5 : 1) was administered intraperitoneally (5 mg/kg) for a total of 3 days on Day 2, Day 3, and Day 4, and the Vehicle group was administered in the same amount of a solution of DMSO, methyl pyrrolidinone, and water (1 : 1.5 : 1) (FIG. 16A). To assess daily skin changes, PASI scores were used for erythema and scaling. The PASI score was evaluated as a severity scale of 0 to 4, in which 0 meant none, 1 meant mild, 2 meant moderate, 3 meant severe, and 4 meant very severe. (PASI Reference: Yashpal Manchanda, Abhishek De, Sudip Das, and Disha Chakraborty. Disease Assessment in Psoriasis. Indian J Dermatol. 2023 May-Jun; 68 (3): 278-281.)

CCc1ccc(N(C(=O)COC)c2nc3cc(Cl)ccc3o2)cc1 [YJ102]
GFAP expression intensity [1]: significantly decreased
reduction of epidermal layer thickness compared to the Vehicle group ([2]; Day 6): approximately 35%
epidermal layer thickness ([2]; Day 6, 5 mg/kg intraperitoneally, Sham 36.6 ± 2.3, Vehicle 141.3 ± 7.5): 89.8 ± 6.8 µm
number of cells introduced into the dermal layer ([2]; Day 6, skin tissue H&E): decreased to the Sham level
p75 expression [3]: significantly reduced
mRNA and protein expression of proNGF [4]: significantly inhibited
mRNA levels of IL-1β, TNF-α, IL-6, iNOS, and COX-2 [5]: significantly reduced
degree of erythema (PASI score) [6]: significantly lower
degree of scaling (PASI score) [6]: significantly lower
